Assay [1] has as its system Poliovirus 1 (PV1). Description: microbe, parasite or virus in culture. The class given is cell-based, Human enterovirus C. As to conditions: Enterovirus C, read-out: EC50, replication of Poliovirus 1 (PV1).
Assay [2] deals with Enterovirus 71 (EV71). Description: microbe, parasite or virus in culture. The class given is cell-based, Human enterovirus A. Particulars: Enterovirus A, EV71, read-out: EC50, replication of Enterovirus 71 (EV71).

A value given as a limit tells only on which side of the number the result lay.

For the molecule `COc1ccc(OCc2ccc(COc3c(Cl)cccc3Cl)cc2)c(Cl)c1` [Compound V-073, V-073], the concentration giving a half-maximal response (EC50) in assay [1] was 26 ± 23 nM; in assay [2], > 300000 nM.

Consider `CC(C)S(=O)(=O)n1c(N)nc2ccc(/C(=N/O)c3ccccc3)cc21` [Enviroxime], for which the half-maximal effective concentration (EC50) stood at 790 ± 130 nM in assay [1] and 450 ± 120 nM in assay [2].

For `Cc1cc(CCCOc2c(C)cc(-c3noc(C(F)(F)F)n3)cc2C)on1` [Pleconaril], the 50% effective concentration (EC50) in assay [1] and in assay [2] was > 300000 nM in each case.

Regarding `CCOC(=O)/C=C/[C@H](C[C@@H]1CCNC1=O)NC(=O)[C@@H](CC(=O)[C@@H](NC(=O)c1cc(C)on1)C(C)C)Cc1ccc(F)cc1` [Rupintrivir], the 50% effective concentration (EC50) came out at 4500 ± 360 nM in assay [1] and 900 ± 70 nM in assay [2].

The EC50 is the concentration needed to bring the measured effect to its halfway point.

(Values after patent US8796273B2, “Compound for the treatment of enteroviruses” (priority 2010, dated 2014).)
